Measured values reported in EP2951180B1, “2,6,7,8 SUBSTITUTED PURINES AS HDM2 INHIBITORS” (Merck Sharp & Dohme Corp., priority 2013, dated 2014).

target: T1, HDM2 (Homo sapiens, UniProt Q00987); assay: HDM2 FRET assay (inhibition of binding of FITC labeled p53-pocket peptide to HDM2); conditions: Table 11; read-out: FRET IC50
T1 construct: Thioredoxin (N); made in house; host or cells: E. coli strain BL21(DE3)Rosetta
Outline: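 Signal is read as the 520/495 nm emission ratio and converted to percent inhibition; nonlinear sigmoidal regression yields IC50. The assay mixes HDM2 (0.5 nM), FITC-p53 peptide (3 nM) and Tb anti-His antibody (0.25 nM) at 0.1% DMSO.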

T1 sequence (Q00987 17-125): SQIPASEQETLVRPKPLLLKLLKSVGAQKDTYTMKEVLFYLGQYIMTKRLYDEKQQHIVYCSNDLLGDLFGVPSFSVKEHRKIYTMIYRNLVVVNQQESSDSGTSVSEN

| Structure (SMILES) | IC50 [nM] |
| --- | --- |
| C[C@@H](Nc1nc(-c2noc(=O)[nH]2)nc2nc(N3CCOCC3c3ccc(Cl)cc3)n(C[C@H]3CC[C@H](C)CC3)c12)C1CCC1 (stereo partly drawn) [Example 11.119, 3-{8-[3-(4-chlorophenyl)morpholin-4-yl]-6-{[(1R)-1-cyclobutylethyl]amino}-7-[(trans-4-methylcyclohexyl)methyl]-7H-purin-2-yl}-1,2,4-oxadiazol-5(4H)-one] | 24.8 |
| C[C@@H]1CN(C)C(=O)CN1c1nc2nc(-c3noc(=O)[nH]3)nc(N[C@H](C)C3CCC3)c2n1C[C@H]1CC[C@H](C)CC1 [Example 11.120, (5R)-4-[6-{[(1R)-1-cyclobutylethyl]amino}-7-[(trans-4-methylcyclohexyl)methyl]-2-(5-oxo-4,5-dihydro-1,2,4-oxadiazol-3-yl)-7H-purin-8-yl]-1,5-dimethylpiperazin-2-one] | 5.57 |
| CC1CSCCN1c1nc2nc(-c3noc(=O)[nH]3)nc(N[C@H](C)C3CCC3)c2n1C[C@H]1CC[C@H](C)CC1 (stereo partly drawn) [Example 11.123, 3-[6-{[(1R)-1-cyclobutylethyl]amino}-7-[(trans-4-methylcyclohexyl)methyl]-8-(3-methylthiomorpholin-4-yl)-7H-purin-2-yl]-1,2,4-oxadiazol-5(2H)-one] | 4.39 |
| CC1CS(=O)(=O)CCN1c1nc2nc(-c3noc(=O)[nH]3)nc(N[C@H](C)C3CCC3)c2n1C[C@H]1CC[C@H](C)CC1 (stereo partly drawn) [Example 11.124, 3-[6-{[(1R)-1-cyclobutylethyl]amino}-7-[(trans-4-methylcyclohexyl)methyl]-8-(3-methyl-1,1-dioxidothiomorpholin-4-yl)-7H-purin-2-yl]-1,2,4-oxadiazol-5(2H)-one] | 9.62 |
| C[C@@H](Nc1nc(-c2noc(=O)[nH]2)nc2nc(N3CCOC4CC43)n(C[C@H]3CC[C@H](C)CC3)c12)C1CCC1 (stereo partly drawn) [Example 11.127, 3-[6-{[(1R)-1-cyclobutylethyl]amino}-7-[(trans-4-methylcyclohexyl)methyl]-8-(2-oxa-5-azabicyclo[4.1.0]hept-5-yl)-7H-purin-2-yl]-1,2,4-oxadiazol-5(4H)-one] | 26.2 |
| C[C@@H](Nc1nc(-c2noc(=O)[nH]2)nc2nc(N3CCC[C@H]3C(F)(F)F)n(C[C@H]3CC[C@H](C)CC3)c12)C1CCC1 [Example 11.128, 3-(6-{[(1R)-1-cyclobutylethyl]amino}-7-[(trans-4-methylcyclohexyl)methyl]-8-[(2S)-2-(trifluoromethyl)pyrrolidin-1-yl]-7H-purin-2-yl)-1,2,4-oxadiazol-5(4H)-one] | 0.642 |
| C[C@@H]1COC[C@@H](C)N1c1nc2nc(-c3noc(=O)[nH]3)nc(N[C@H](C)C3CCC3)c2n1C[C@H]1CC[C@H](C)CC1 [Example 11.129, 3-(6-{[(1R)-1-cyclobutylethyl]amino}-8-[(3R,5R)-3,5-dimethylmorpholin-4-yl]-7-[(trans-4-methylcyclohexyl)methyl]-7H-purin-2-yl)-1,2,4-oxadiazol-5(4H)-one] | 0.788 |
| C[C@@H](Nc1nc(-c2noc(=O)[nH]2)nc2nc(N3CCCC3c3ccccc3)n(C[C@H]3CC[C@H](C)CC3)c12)C1CCC1 (stereo partly drawn) [Example 11.130, 3-[6-{[(1R)-1-cyclobutylethyl]amino}-7-[(trans-4-methylcyclohexyl)methyl]-8-(2-phenylpyrrolidin-1-yl)-7H-purin-2-yl]-1,2,4-oxadiazol-5(4H)-one] | 2.05 |
| C[C@@H](Nc1nc(-c2n[nH]c(=O)o2)nc2nc(N3CCC[C@H]3C(F)(F)F)n(C[C@H]3CC[C@H](C)CC3)c12)C1CCC1 [Example 11.137, 5-(6-{[(1R)-1-cyclobutylethyl]amino}-7-[(trans-4-methylcyclohexyl)methyl]-8-[(2S)-2-(trifluoromethyl)pyrrolidin-1-yl]-7H-purin-2-yl)-1,3,4-oxadiazol-2(3H)-one] | 0.881 |
| C[C@@H](Nc1nc(-c2noc(=O)[nH]2)nc2nc(N3CCOC[C@H]3c3ccccn3)n(C[C@H]3CC[C@H](C)CC3)c12)C1CCC1 [Example 11.142, 3-(6-{[(1R)-1-cyclobutylethyl]amino}-7-[(trans-4-methylcyclohexyl)methyl]-8-[(3R)-3-pyridin-2-ylmorpholin-4-yl]-7H-purin-2-yl)-1,2,4-oxadiazol-5(4H)-one] | 0.774 |
